This test deals with solid tumour. In words: Tumour response in phase I patients. Format: in vivo, human. As to conditions: 2-20 mg m-2 day-1, days 1-5 every 4 weeks; 10 patients with measurable disease. The source says:
Fostriecin (CI-920) is a topoisomerase (topo) II catalytic activity inhibitor (Boritzki et al, 1988) (Figure 1). This novel class of topo II-targeting drugs is considered of potential value for treatment of patients with tumours resistant to classic topo II poisons, including anthracyclines and podophyllotoxins (Cummings and Smyth, 1993). The nuclear enzyme topo II is essential for the regulation of DNA conformation (reviewed in Osheroff et al, 1991). Central in its action is the formation of a complex with DNA. Stabilization of this complex by topo II poisons induces DNA damage and cell death (Froelich-Ammon and Osheroff, 1995). Decreased complex formation due to decreased topo II levels is considered to be an important mechanism of tumour-resistance to topo II poisons (Beck and Danks, 1991). The topo II catalytic inhibitor fostriecin is expected to have increased activity against tumour cells with low topo II levels and this was confirmed in in vitro studies (De Jong et al, 1991). […] Drug pharmacokinetics was analysed with high performance liquid chromatography with UV-detection. […] A metabolite, most probably dephosphorylated fostriecin, was detected in plasma and urine. […]

SMILES strings stand for the structures.

Consider `C[C@@](O)(/C=C/[C@H]1CC=CC(=O)O1)[C@@H](C[C@@H](O)\C=C/C=C\C=C\CO)OP(=O)(O)O` [fostriecin], for which the tumour responses entry is on record as “No tumour responses”.

The record behind these values is article PMC2362650, “Phase I and pharmacokinetic study of the topoisomerase II catalytic inhibitor fostriecin” (British Journal of Cancer, 1999).
